These are literature values, as cited in PMC5988656, “Phase I studies of AZD1208, a proviral integration Moloney virus kinase inhibitor in solid and haematological cancers” (British Journal of Cancer, 2018).

This data set has as its system MYC-driven prostate cancer models. On the set-up: method as in PMID 25505253. The following applies: cited from earlier work.

On to `N[C@@H]1CCCN(c2c(/C=C3\SC(=O)NC3=O)cccc2-c2ccccc2)C1` [AZD1208], for which the Tumour growth result was “significantly decreased tumour growth”.
